ChEMBL document CHEMBL1126375, “Synthesis of chiral phosphorus mustards derived from serine” (Bioorg Med Chem Lett, 1992)
Active and inactive are the calls of the source. The rule behind the calls is not given here.

Assays:
[1] = system: Human immunodeficiency virus 1; assay: Compound was tested for in vitro anti-human immunodeficiency virus activity; NA=No activity; assay type: functional, organism-based
Tumor cell line = assay: Compound was tested for in vitro activity against tumor cell lines; NA=No activity; assay type: functional, cell-based

COC(=O)[C@@H]1CO[P@@](=O)(N(CCCl)CCCl)N1Cc1ccccc1 (stereo in doubt; 5b)
Activity [1]: inactive
Activity (Tumor cell line): inactive

COC(=O)[C@@H]1CO[P@@](=O)(N(CCCl)CCCl)N1Cc1ccccc1 (stereo in doubt; 7a)
Activity [1]: inactive
Activity (Tumor cell line): inactive

COC(=O)[C@H]1CO[P@](=O)(N(CCCl)CCCl)N1Cc1ccccc1
Activity [1]: inactive
Activity (Tumor cell line): inactive

COC(=O)[C@@H]1CO[P@@](=O)(N(CCCl)CCCl)N1Cc1ccccc1 (stereo in doubt; 5a)
Activity [1]: inactive
Activity (Tumor cell line): inactive
